In ChEMBL document CHEMBL4387741, “Optimization of novel reversible Bruton's tyrosine kinase inhibitors identified using Tethering-fragment-based screens” (Bioorg Med Chem, 2019):

Tests used:
[1] = biological target: Atypical kinase COQ8A, mitochondrial (Homo sapiens) (UniProt Q8NI60); assay: Inhibition of wild-type human […] ADCK3 (M280 to Q647 residues) expressed in bacterial expression system at 1 uM by Kinomescan method relative to control
[2] = biological target: Calcium/calmodulin-dependent protein kinase type 1G (Homo sapiens) (UniProt Q96NX5); assay: Inhibition of wild-type human partial length CAMK1G (M1 to A342 residues) expressed in bacterial expression system at 1 uM by Kinomescan method relative to control
[3] = tested on: Epidermal growth factor receptor (Homo sapiens), P00533 [UNDEFINED MUTATION]; assay: Inhibition of human partial length EGFR S752-I759del mutant expressed in bacterial expression system at 1 uM by Kinomescan method relative to control
Epidermal growth factor receptor (Homo sapiens), P00533 [UNDEFINED MUTATION], sequence (P00533 whole entry, looked up, stated change not applied, the tested form may be a part): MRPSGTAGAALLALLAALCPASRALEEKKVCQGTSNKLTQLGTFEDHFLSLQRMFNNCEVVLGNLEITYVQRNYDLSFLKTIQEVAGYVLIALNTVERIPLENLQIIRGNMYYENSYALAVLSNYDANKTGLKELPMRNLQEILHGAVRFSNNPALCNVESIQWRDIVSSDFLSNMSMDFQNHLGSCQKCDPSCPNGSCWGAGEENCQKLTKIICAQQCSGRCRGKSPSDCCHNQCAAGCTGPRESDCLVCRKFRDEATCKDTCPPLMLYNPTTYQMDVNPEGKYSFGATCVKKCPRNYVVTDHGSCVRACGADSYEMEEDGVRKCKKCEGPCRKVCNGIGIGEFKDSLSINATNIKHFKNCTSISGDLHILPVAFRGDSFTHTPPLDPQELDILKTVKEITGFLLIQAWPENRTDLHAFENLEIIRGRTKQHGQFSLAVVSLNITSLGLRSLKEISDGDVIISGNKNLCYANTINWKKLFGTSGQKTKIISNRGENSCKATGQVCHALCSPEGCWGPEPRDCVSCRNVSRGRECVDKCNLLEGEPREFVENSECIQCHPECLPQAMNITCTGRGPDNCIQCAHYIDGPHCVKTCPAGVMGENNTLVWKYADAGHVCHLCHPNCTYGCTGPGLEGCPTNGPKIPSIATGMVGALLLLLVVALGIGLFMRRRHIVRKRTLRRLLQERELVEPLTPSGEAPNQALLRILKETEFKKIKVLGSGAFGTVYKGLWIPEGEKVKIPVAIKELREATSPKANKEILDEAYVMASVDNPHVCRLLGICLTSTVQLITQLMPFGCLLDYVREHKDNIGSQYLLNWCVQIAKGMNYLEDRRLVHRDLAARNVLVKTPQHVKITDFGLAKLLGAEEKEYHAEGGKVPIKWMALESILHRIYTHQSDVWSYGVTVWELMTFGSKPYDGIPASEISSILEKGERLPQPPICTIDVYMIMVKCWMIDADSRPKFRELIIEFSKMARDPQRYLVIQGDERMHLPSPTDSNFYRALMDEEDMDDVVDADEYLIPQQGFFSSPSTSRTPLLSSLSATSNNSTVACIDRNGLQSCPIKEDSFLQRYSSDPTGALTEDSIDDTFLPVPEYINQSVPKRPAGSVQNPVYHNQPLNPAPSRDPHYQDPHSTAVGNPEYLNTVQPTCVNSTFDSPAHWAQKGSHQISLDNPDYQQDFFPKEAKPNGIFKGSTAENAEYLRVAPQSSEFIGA

[4] = biological target: Ephrin type-B receptor 2 (Homo sapiens) (UniProt P29323); assay: Inhibition of wild-type human partial length EPHB2 (I597 to L902 residues) expressed in bacterial expression system at 1 uM by Kinomescan method relative to control
Ephrin type-B receptor 2 (Homo sapiens), sequence (P29323 whole entry, the tested form may be a part): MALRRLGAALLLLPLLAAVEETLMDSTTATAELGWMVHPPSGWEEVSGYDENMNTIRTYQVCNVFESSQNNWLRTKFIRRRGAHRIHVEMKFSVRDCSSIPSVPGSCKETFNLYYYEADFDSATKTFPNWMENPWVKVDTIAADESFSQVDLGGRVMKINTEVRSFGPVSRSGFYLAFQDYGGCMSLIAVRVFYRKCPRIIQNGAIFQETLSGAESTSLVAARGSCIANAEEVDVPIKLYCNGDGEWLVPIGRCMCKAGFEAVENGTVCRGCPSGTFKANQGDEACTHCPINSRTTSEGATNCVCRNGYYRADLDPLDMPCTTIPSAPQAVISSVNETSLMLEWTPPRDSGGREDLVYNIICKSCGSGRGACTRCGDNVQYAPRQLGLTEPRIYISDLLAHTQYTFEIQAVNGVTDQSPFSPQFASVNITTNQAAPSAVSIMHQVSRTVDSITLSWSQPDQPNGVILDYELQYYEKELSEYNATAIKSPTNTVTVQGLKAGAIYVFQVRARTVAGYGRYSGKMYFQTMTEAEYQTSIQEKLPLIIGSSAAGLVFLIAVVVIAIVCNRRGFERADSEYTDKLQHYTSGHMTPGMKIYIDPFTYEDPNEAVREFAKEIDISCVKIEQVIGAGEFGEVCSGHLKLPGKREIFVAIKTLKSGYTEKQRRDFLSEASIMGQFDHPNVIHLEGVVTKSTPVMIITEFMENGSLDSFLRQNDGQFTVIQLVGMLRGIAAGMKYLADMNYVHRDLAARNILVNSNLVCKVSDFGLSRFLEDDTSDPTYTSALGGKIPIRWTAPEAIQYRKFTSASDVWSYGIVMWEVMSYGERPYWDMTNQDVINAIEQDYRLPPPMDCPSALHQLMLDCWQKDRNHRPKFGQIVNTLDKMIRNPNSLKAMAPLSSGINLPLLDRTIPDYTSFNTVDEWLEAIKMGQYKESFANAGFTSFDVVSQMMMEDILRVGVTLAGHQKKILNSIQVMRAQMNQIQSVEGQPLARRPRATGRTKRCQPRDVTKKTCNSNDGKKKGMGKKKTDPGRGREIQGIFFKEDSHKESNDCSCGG

[5] = biological target: Insulin receptor-related protein (Homo sapiens) (UniProt P14616); assay: Inhibition of wild-type human partial length INSRR (R950 to E1278 residues) expressed in bacterial expression system at 1 uM by Kinomescan method relative to control
[6] = biological target: Mitogen-activated protein kinase kinase kinase kinase 4 (Homo sapiens) (UniProt O95819); assay: Inhibition of wild-type human partial length MAP4K4 (M1 to R310 residues) expressed in bacterial expression system at 1 uM by Kinomescan method relative to control
Mitogen-activated protein kinase kinase kinase kinase 4 (Homo sapiens), sequence (O95819 2-1239 limits assumed): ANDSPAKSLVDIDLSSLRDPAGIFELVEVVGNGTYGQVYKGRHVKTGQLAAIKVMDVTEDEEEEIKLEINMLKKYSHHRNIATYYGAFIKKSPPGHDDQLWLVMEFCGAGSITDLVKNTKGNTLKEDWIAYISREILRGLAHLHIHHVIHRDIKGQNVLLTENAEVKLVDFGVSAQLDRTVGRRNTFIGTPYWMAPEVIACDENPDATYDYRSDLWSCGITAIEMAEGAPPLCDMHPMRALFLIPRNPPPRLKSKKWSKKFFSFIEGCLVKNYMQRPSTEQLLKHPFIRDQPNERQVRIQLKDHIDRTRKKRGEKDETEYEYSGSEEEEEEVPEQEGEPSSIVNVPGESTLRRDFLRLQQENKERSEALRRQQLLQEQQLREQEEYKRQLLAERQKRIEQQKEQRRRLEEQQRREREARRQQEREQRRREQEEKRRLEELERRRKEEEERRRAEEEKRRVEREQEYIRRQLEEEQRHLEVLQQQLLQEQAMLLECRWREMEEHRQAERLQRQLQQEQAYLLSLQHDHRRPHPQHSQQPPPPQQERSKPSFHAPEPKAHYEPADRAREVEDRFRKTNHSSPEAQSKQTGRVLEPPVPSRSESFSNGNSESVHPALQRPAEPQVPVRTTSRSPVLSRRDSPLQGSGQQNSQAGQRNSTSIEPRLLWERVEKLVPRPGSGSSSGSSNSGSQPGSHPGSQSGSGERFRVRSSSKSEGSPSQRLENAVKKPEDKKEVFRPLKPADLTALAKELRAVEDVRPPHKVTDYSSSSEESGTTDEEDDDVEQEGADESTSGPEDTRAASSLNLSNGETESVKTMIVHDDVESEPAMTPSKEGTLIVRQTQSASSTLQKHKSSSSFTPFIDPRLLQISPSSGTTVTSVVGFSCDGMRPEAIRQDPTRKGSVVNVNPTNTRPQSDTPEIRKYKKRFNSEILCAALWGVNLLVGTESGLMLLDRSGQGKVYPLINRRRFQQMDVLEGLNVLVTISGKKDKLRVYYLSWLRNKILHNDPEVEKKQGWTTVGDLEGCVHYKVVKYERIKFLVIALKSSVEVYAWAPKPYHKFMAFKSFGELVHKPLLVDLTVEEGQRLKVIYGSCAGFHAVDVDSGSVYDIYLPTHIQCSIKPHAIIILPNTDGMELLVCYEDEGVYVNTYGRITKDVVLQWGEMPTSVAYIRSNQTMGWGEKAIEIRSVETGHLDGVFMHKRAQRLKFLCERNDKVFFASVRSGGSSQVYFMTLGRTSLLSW

[7] = biological target: Serine/threonine-protein kinase Nek1 (Homo sapiens) (UniProt Q96PY6); assay: Inhibition of wild-type human partial length NEK1 (M1 to K278 residues) expressed in bacterial expression system at 1 uM by Kinomescan method relative to control
[8] = tested on: Phosphatidylinositol 4,5-bisphosphate 3-kinase catalytic subunit alpha isoform (Homo sapiens), P42336 [C420R]; assay: Inhibition of human partial length PIK3CA C420R mutant (R108 to N1068 residues) expressed in mammalian expression system at 1 uM by Kinomescan method relative to control
[9] = biological target: 1-phosphatidylinositol 3-phosphate 5-kinase (Homo sapiens) (UniProt Q9Y2I7); assay: Inhibition of wild-type human partial length PIKFYVE (F1512 to C2098 residues) expressed in mammalian expression system at 1 uM by Kinomescan method relative to control
[10] = biological target: Membrane-associated tyrosine- and threonine-specific cdc2-inhibitory kinase (Homo sapiens) (UniProt Q99640); assay: Inhibition of wild-type human partial length PKMYT1 (A88 to G366 residues) expressed in bacterial expression system at 1 uM by Kinomescan method relative to control
[11] = biological target: Protein kinase C eta type (Homo sapiens) (UniProt P24723); assay: Inhibition of wild-type human partial length PRKCH (S324 to P683 residues) expressed in bacterial expression system at 1 uM by Kinomescan method relative to control
[12] = tested on: Tyrosine-protein kinase ABL1 (Homo sapiens), P00519 [F317L]; assay: Inhibition of human phosphorylated ABL1 F317L mutant (S229 to K512 residues) expressed in mammalian expression system at 10 uM by Kinomescan method relative to control
Tyrosine-protein kinase ABL1 (Homo sapiens), P00519 [F317L], sequence (P00519 whole entry F317L, the tested form may be a part): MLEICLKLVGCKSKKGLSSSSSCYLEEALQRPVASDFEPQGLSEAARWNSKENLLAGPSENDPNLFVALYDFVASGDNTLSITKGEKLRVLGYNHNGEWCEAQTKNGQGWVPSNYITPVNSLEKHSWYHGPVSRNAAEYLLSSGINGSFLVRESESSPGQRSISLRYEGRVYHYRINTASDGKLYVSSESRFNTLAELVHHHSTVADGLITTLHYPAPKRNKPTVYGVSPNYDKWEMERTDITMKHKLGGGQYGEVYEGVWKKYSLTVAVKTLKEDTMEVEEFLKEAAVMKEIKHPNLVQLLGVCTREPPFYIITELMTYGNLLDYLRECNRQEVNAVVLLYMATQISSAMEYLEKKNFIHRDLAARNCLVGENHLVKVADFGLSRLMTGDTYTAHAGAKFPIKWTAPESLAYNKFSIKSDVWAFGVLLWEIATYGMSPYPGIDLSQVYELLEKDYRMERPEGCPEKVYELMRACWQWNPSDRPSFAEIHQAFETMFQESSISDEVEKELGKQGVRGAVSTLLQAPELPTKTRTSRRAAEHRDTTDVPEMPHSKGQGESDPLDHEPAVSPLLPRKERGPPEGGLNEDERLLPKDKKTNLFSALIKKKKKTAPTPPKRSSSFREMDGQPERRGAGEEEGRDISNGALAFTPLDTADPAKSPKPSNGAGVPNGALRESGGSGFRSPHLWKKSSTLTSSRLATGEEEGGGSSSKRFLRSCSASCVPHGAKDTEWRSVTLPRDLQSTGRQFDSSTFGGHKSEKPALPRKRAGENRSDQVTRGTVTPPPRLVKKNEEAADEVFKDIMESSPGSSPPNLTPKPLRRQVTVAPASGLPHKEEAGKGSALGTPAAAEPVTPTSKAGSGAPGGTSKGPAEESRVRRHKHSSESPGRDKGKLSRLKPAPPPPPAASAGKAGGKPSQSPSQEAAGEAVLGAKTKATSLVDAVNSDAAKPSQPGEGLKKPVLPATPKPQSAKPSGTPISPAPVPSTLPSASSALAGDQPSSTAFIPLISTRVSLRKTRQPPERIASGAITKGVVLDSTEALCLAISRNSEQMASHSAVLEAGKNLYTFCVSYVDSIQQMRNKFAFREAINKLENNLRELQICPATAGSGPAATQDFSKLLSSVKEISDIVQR

[13] = biological target: CDK4/Cyclin D3 (Homo sapiens) (UniProt P11802+P30281); assay: Inhibition of wild-type human full length CDK4/cyclinD3 (M1 to E303 residues) expressed in mammalian expression system at 10 uM by Kinomescan method relative to control
[14] = biological target: Casein kinase I isoform epsilon (Homo sapiens) (UniProt P49674); assay: Inhibition of wild-type human full length CSNK1E (M1 to K416 residues) expressed in bacterial expression system at 10 uM by Kinomescan method relative to control
[15] = biological target: Death-associated protein kinase 2 (Homo sapiens) (UniProt Q9UIK4); assay: Inhibition of wild-type human full length DAPK2 (M1 to S370 residues) expressed in bacterial expression system at 10 uM by Kinomescan method relative to control
[16] = biological target: Death-associated protein kinase 3 (Homo sapiens) (UniProt O43293); assay: Inhibition of wild-type human partial length DAPK3 (M1 to A277 residues) expressed in bacterial expression system at 10 uM by Kinomescan method relative to control
[17] = biological target: Serine/threonine-protein kinase DCLK3 (Homo sapiens) (UniProt Q9C098); assay: Inhibition of wild-type human partial length DCAMKL3 (E140 to V628 residues) expressed in bacterial expression system at 10 uM by Kinomescan method relative to control
[18] = tested on: Epidermal growth factor receptor (Homo sapiens), P00533 [UNDEFINED MUTATION]; assay: Inhibition of human partial length EGFR E746-A750del mutant expressed in bacterial expression system at 10 uM by Kinomescan method relative to control
[19] = biological target: Mitogen-activated protein kinase kinase kinase kinase 1 (Homo sapiens) (UniProt Q92918); assay: Inhibition of wild-type human full length HPK1 (M1 to R799 residues) expressed in bacterial expression system at 10 uM by Kinomescan method relative to control
[20] = biological target: Mast/stem cell growth factor receptor Kit (Homo sapiens) (UniProt P10721); assay: Inhibition of wild-type human partial length autoinhibited KIT (Y545 to D952 residues) expressed in mammalian expression system at 10 uM by Kinomescan method relative to control
[21] = biological target: Leukocyte tyrosine kinase receptor (Homo sapiens) (UniProt P29376); assay: Inhibition of wild-type human partial length LTK (P422 to S744 residues) expressed in bacterial expression system at 10 uM by Kinomescan method relative to control
[22] = biological target: Serine/threonine-protein kinase MRCK alpha (Homo sapiens) (UniProt Q5VT25); assay: Inhibition of wild-type human partial length MRCKA (L57 to V418 residues) expressed in bacterial expression system at 10 uM by Kinomescan method relative to control
[23] = biological target: Serine/threonine-protein kinase 4 (Homo sapiens) (UniProt Q13043); assay: Inhibition of wild-type human full length MST1 (M1 to F487 residues) expressed in bacterial expression system at 10 uM by Kinomescan method relative to control
[24] = biological target: Serine/threonine-protein kinase SBK1 (Homo sapiens) (UniProt Q52WX2); assay: Inhibition of wild-type human partial length SBK1 (P23 to P348 residues) expressed in mammalian expression system at 10 uM by Kinomescan method relative to control
[25] = biological target: Uncharacterized serine/threonine-protein kinase SBK3 (Homo sapiens) (UniProt P0C264); assay: Inhibition of wild-type human partial length SgK110 (L22 to R329 residues) expressed in bacterial expression system at 10 uM by Kinomescan method relative to control
Uncharacterized serine/threonine-protein kinase SBK3 (Homo sapiens), sequence (P0C264 whole entry, the tested form may be a part): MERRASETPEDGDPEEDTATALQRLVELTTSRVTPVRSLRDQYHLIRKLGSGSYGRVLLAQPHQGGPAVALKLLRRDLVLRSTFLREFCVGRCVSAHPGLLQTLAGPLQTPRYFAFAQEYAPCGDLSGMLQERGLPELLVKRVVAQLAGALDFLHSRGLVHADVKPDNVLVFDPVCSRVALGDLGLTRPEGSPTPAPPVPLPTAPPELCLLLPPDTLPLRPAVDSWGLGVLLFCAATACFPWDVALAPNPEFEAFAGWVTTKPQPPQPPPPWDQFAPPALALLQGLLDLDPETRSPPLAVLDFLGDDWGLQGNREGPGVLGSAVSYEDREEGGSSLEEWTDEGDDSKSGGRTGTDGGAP

[26] = biological target: Serine/threonine-protein kinase TAO3 (Homo sapiens) (UniProt Q9H2K8); assay: Inhibition of wild-type human partial length TAOK3 (M1 to T316 residues) expressed in mammalian expression system at 10 uM by Kinomescan method relative to control
[27] = biological target: Serine/threonine-protein kinase WNK4 (Homo sapiens) (UniProt Q96J92); assay: Inhibition of wild-type human partial length WNK4 (A31 to D461 residues) expressed in mammalian expression system at 10 uM by Kinomescan method relative to control

O=C(Nc1cccc([C@@H]2CN(c3ncnc4[nH]ccc34)CCN2CCO)c1)Nc1c(F)cccc1N1CCCC1 gave an inhibition [1] of 100%, an inhibition [2] of 100% and an inhibition [3] of 100%. For the same compound, the inhibition [4] was 85%, the inhibition [5] was 100% and the inhibition [6] was 100%. It also gave an inhibition [7] of 100%, an inhibition [8] of 89% and an inhibition [9] of 91%. It also gave an inhibition [10] of 84% and an inhibition [11] of 80%.

In the case of O=C(Nc1cccc([C@H]2CCCN(c3ncnc4[nH]ccc34)C2)c1)Nc1ccccc1N1CCCC1, the inhibition [12] is reported as 87%, the inhibition [13] is reported as 100% and the inhibition [14] is reported as 90%. It also gave an inhibition [15] of 7.1%, an inhibition [16] of 4.1% and an inhibition [17] of 100%. It also gave an inhibition [18] of 75%, an inhibition [19] of 100% and an inhibition [20] of 71%. For the same compound, the inhibition [21] was 100%, the inhibition [22] was 100% and the inhibition [23] was 47%. It also gave an inhibition [24] of 42%, an inhibition [25] of 100% and an inhibition [26] of 79%. It also gave an inhibition [27] of 87%.
